# Reference: article PMC11800497, “Antifungal activity and biocompatibility assessment with molecular docking and dynamic simulations of new pyrazole derivatives” (BMC Biotechnology, 2025)
# “Also recorded” adds a separate entry of the source. Marks after values point to notes of the source that are not given here.
# Experiments:
# A. niger ATCC 11414 [1] = assay: Well-diffusion antifungal activity; format: cell-based, Aspergillus niger; settings: 1000 µg/ml, 72 h, 28 °C; for zone of inhibition at 1000 µg/mL: Aspergillus niger, ATCC11414, read-out: IZD
# Protocol: This study investigated strains of four distinct fungal pathogens: Aspergillus flavus ATCC 9643, A. niger ATCC 11414, Rhizopus oryzae ATCC 96382, and Penicillium chrysogenum ATCC 10106. Every strain was acquired from the Dep. of Micro. Fac. Agric., […] Uni., in Egypt. Initially kept and preserved in malt agar medium at 4 °C, the pathogens were then grown overnight at 28 °C in malt broth medium to evaluate the antifungal activity. Fungal pathogen standard inoculum was prepared by following the procedure described by [19, 20]. To assess the antifungal activity, the pathogens were first maintained and stored at 4 °C in malt agar medium. They were then cultured in malt broth medium for a whole night at 28 °C. According to [22], the well-diffusion technique was used to test the antifungal activity. This included using a 9.0 mm cork borer that had been sterilized to create wells in the malt agar layer. […] After adding 1000 μg/ml of control pyrazole compounds and the standard antifungal (Fluconazole 1000 μg/ml) to each well, the petri dishes were incubated at 28 °C for 72 h. The diameter of the standard reference antifungal was compared to the millimeters measurements of the inhibitory zones. The formula according to [22] was utilized to compute the activity index (AI).1 [drawing 1]
# A. flavus ATCC 9643 [2] = assay: Well-diffusion antifungal activity; format: cell-based, Aspergillus flavus; settings: 1000 µg/ml; for zone of inhibition at 1000 µg/mL: Aspergillus flavus, ATCC9643, read-out: IZD
# Protocol: (§1) This study investigated strains of four distinct fungal pathogens: Aspergillus flavus ATCC 9643, A. niger ATCC 11414, Rhizopus oryzae ATCC 96382, and Penicillium chrysogenum ATCC 10106. Every strain was acquired from the Dep. of Micro. Fac. Agric., […] Uni., in Egypt. Initially kept and preserved in malt agar medium at 4 °C, the pathogens were then grown overnight at 28 °C in malt broth medium to evaluate the antifungal activity. Fungal pathogen standard inoculum was prepared by following the procedure described by. To assess the antifungal activity, the pathogens were first maintained and stored at 4 °C in malt agar medium. They were then cultured in malt broth medium for a whole night at 28 °C. According to [22], the well-diffusion technique was used to test the antifungal activity. This included using a 9.0 mm cork borer that had been sterilized to create wells in the malt agar layer. […] After adding 1000 μg/ml of control pyrazole compounds and the standard antifungal (Fluconazole 1000 μg/ml) to each well, the petri dishes were incubated at 28 °C for 72 h. The diameter of the standard reference antifungal was compared to the millimeters measurements of the inhibitory zones. The formula according to [22] was utilized to compute the activity index (AI).1 [drawing 1]
# [3] = system: P. chrysogenum ATCC 10106; assay: Well-diffusion antifungal activity; format: cell-based, Penicillium chrysogenum; settings: 1000 µg/ml; for zone of inhibition at 1000 µg/mL: Penicillium chrysogenum, ATCC10106, 72 h, 28 °C, read-out: IZD
# Protocol: as §1
# R. oryzae ATCC 96382 = assay: Well-diffusion antifungal activity; format: cell-based, Rhizopus oryzae; settings: Rhizopus arrhizus, ATCC96382; 1000 µg/ml, 72 h, 28 °C; read-out: IZD
# Protocol: as §1
# A. niger ATCC 11414 [4] = assay: Minimal fungal inhibitory concentration (MFIC); format: cell-based, Aspergillus niger; design: key to Growth in MFIC test: -: No detected growth; +: Growth observed; settings: 72 h, 28 °C
# Protocol: (§2) In diagnostic laboratories, minimum inhibitory concentrations (MICs) are essential for confirming fungal resistance to an antifungal drug and monitoring the effectiveness of new antifungal medicines. MICs were computed in accordance with the recommendations established by the National Committee for Clinical Laboratory Standards (CLS). In dimethyl sulfoxide (DMSO), pyrazoles were serially diluted twice (1/2, 1/4, and 1/8) and heated at 70 °C for 10 min to get final concentrations of 1000–125 μg/ml, respectively. After that, these dilutions were put into wells that had already been created on plates with fungal infestations. Using a calibrated micropipette, fungus spore suspensions were prepared and added to malt agar welled plates then incubated for 72 h at 28 °C.
# A. flavus ATCC 9643 [5] = assay: Minimal fungal inhibitory concentration (MFIC); format: cell-based, Aspergillus flavus; design: key to Growth in MFIC test: -: No detected growth; +: Growth observed; settings: 72 h, 28 °C
# Protocol: as §2
# A. niger ATCC 11414 [6] = assay: Minimal lethal fungal concentration (MLFC); format: cell-based, Aspergillus niger; design: key to Growth in MLFC test: -: No detected growth; +: Growth observed
# Protocol: (§3) The term “minimal lethal fungal concentration” (MLFC) refers to the lowest concentration of an antifungal drug that may […]. The fungus was initially subjected to different concentrations of the pyrazole compounds in order to ascertain this concentration. After that, the growth from the MIFC stage was moved to regular malt agar plates. After that, these plates are incubated for 72 h at 28 °C. After then, any growth—or lack thereof—is noted and studied.
# (§4) Following the acquisition of the MFIC and MLFC records, the ratio was computed. The fungicidal activity of a pyrazole compound is defined as a ratio […].
# A. flavus ATCC 9643 [7] = assay: Minimal lethal fungal concentration (MLFC); format: cell-based, Aspergillus flavus; design: key to Growth in MLFC test: -: No detected growth; +: Growth observed
# Protocol: as §3, §4
# [8] = system: A. niger ATCC 11414 and A. flavus ATCC 9643; assay: Activity spectrum in MFIC/MLFC tests (share of strains inhibited); format: cell-based, Aspergillus niger, Aspergillus flavus
# Protocol: as §2, §3
# [9] = Biocompatibility, MTT assay; format: cell-based, human; settings: human, HFB4 normal human skin cells
# Protocol: (§5) A complete monolayer sheet was created by incubating the 96-well tissue culture plate at 37 °C for 24 h following inoculation with 1 × 10^5 cells/ml (100 µl/well), following the procedure described by. Following the establishment of a confluent sheet of cells, the growth material was collected from the 96-well micro titer plates, and the cell monolayer underwent two washing media washes. […] They then evaluated 0.1 ml of each dilution in several wells. We looked at the cells for physical signs of toxicity, including granulation, rounding, shrinkage, and partial or complete loss of the monolayer. Following the phosphate buffer solution’s preparation, each well received 20 µl of a 5 mg/ml MTT (3-(4,5-dimethylthiazol-2-yl-)-2,5 diphenyltetrazolium bromide) solution from Bio Basic Canada Inc. After that, place it on a shaking table and shake it for five minutes at 150 rpm to completely integrate the MTT. to allow MTT to metabolize, followed by incubation for 4 h at 37 °C with 5% CO2. Media was taken out if necessary, and paper towels were used to wipe out any remaining material from the plate. One may re-dissolve formazan, a metabolic product of MTT, in 200 µL of DMSO. Put on a shaking table and shaken for five minutes at 150 rpm to fully mix the formazan and solvent. At 560 nm, optical density was measured, and at 620 nm, background was subtracted. There should be a direct relationship between optical density and cell number.3 [drawing 3]
# [10] = system: HFB4 normal human skin cell line; assay: Biocompatibility, MTT assay; format: cell-based
# Protocol: as §5
# A. fumigatus = system: A. fumigatus; design: method as in PMID 31926784; settings: cited from earlier work
# A. niger = system: A. niger; design: method as in PMID 31926784; settings: cited from earlier work
# A. flavus = system: A. flavus; design: method as in PMID 31926784; settings: cited from earlier work
# [11] = relative to Fluconazole 1000 µg/ml
smiles,measurement,setting,value
COc1ccc(NC(=O)/C(C#N)=C/c2cn(-c3ccccc3)nc2-c2ccccc2)cc1 [3b],IZD,A. niger ATCC 11414 [1],32 ± 0.14^a mm
same,zone of inhibition at 1000 µg/mL,A. niger ATCC 11414 [1],32 mm
same,IZD,"A. flavus ATCC 9643 [2]; 72 h, 28 °C",30 ± 0.13^b mm
same,AI (activity index),A. flavus ATCC 9643 [2]; [11],1.0
same,zone of inhibition at 1000 µg/mL,"A. flavus ATCC 9643 [2]; 72 h, 28 °C",30 mm
same,AI (activity index),[3]; [11],0.87
same,zone of inhibition at 1000 µg/mL,[3],20 ± 0.11 mm
same,zone of inhibition at 1000 µg/mL,R. oryzae ATCC 96382,0 mm
same,Growth in MFIC test,A. niger ATCC 11414 [4]; 125 µg/ml,+
same,Growth in MFIC test,A. niger ATCC 11414 [4]; 250 µg/ml,-
same,Growth in MFIC test,A. niger ATCC 11414 [4]; 500 µg/ml,-
same,Growth in MFIC test,A. niger ATCC 11414 [4]; 1000 µg/ml,-
same,Dose of MFIC,A. niger ATCC 11414 [4],250 µg/mL
same,Growth in MFIC test,A. flavus ATCC 9643 [5]; 125 µg/ml,+
same,Growth in MFIC test,A. flavus ATCC 9643 [5]; 250 µg/ml,-
same,Growth in MFIC test,A. flavus ATCC 9643 [5]; 500 µg/ml,-
same,Growth in MFIC test,A. flavus ATCC 9643 [5]; 1000 µg/ml,-
same,Dose of MFIC,A. flavus ATCC 9643 [5],250 µg/mL
same,Antifungal effect (ratio of MLFC and MFIC),A. niger ATCC 11414 [6],2
same,Growth in MLFC test,"A. niger ATCC 11414 [6]; 125 µg/ml, 72 h, 28 °C",+
same,Growth in MLFC test,"A. niger ATCC 11414 [6]; 250 µg/ml, 72 h, 28 °C",+
same,Growth in MLFC test,"A. niger ATCC 11414 [6]; 500 µg/ml, 72 h, 28 °C",-
same,Growth in MLFC test,"A. niger ATCC 11414 [6]; 1000 µg/ml, 72 h, 28 °C",-
same,Dose of MLFC,"A. niger ATCC 11414 [6]; 72 h, 28 °C",500 µg/mL
same,Antifungal effect (ratio of MLFC and MFIC),A. flavus ATCC 9643 [7],2
same,Growth in MLFC test,"A. flavus ATCC 9643 [7]; 125 µg/ml, 72 h, 28 °C",+
same,Growth in MLFC test,"A. flavus ATCC 9643 [7]; 250 µg/ml, 72 h, 28 °C",+
same,Growth in MLFC test,"A. flavus ATCC 9643 [7]; 500 µg/ml, 72 h, 28 °C",-
same,Growth in MLFC test,"A. flavus ATCC 9643 [7]; 1000 µg/ml, 72 h, 28 °C",-
same,Dose of MLFC,"A. flavus ATCC 9643 [7]; 72 h, 28 °C",500 µg/mL
same,Activity spectrum (MLFC),[8]; 125 µg/ml,0/2 (0%)
same,Activity spectrum (MLFC),[8]; 250 µg/ml,0/2 (0%)
same,Activity spectrum (MLFC),[8]; 500 µg/ml,2/2 (100%)
same,Activity spectrum (MLFC),[8]; 1000 µg/ml,2/2 (100%)
same,viability at 31.25 µg/ml,[9]; 31.25 µg/ml,99.9%
same,viability at 62.5 µg/ml,[9]; 62.5 µg/ml,99.8%
same,viability at 125 µg/ml,[9]; 125 µg/ml,99.9%
same,viability at 250 µg/ml,[9]; 250 µg/ml,99.8%
same,viability at 500 µg/ml,[9]; 500 µg/ml,99.6%
same,viability at 1000 µg/ml,[9]; 1000 µg/ml,99.2%
same,Toxicity %,[10]; 31.25 µg/ml,0.177%
same,Toxicity %,[10]; 62.5 µg/ml,0.118%
same,Toxicity %,[10]; 125 µg/ml,0.118%
same,Toxicity %,[10]; 250 µg/ml,0.236%
same,Toxicity %,[10]; 500 µg/ml,0.354%
same,Toxicity %,[10]; 1000 µg/ml,0.767%
same,Changes of HFB4 cells,[10]; concentrations 31.25–1000 µg/ml,no significant changes
same,IC50 (cytotoxicity),[10]; tested up to 1000 µg/ml,no IC50 dose obtained; also recorded: no IC50 dose was determined
"O=C1c2c(Br)c(Br)c(Br)c(Br)c2C(=O)N1N=Cc1cn(-c2ccccc2)nc1-c1ccccc1 [compound 6, 4,5,6,7-tetrabromo-2-(((1,3-diphenyl-1H-pyrazol-4-yl)methylene)amino)isoindoline-1,3-dione]",zone of inhibition at 1000 µg/mL,A. niger ATCC 11414 [1],0 mm
same,zone of inhibition at 1000 µg/mL,"A. flavus ATCC 9643 [2]; 72 h, 28 °C",0 mm
same,zone of inhibition at 1000 µg/mL,[3],0 mm
same,zone of inhibition at 1000 µg/mL,R. oryzae ATCC 96382,0 mm
same,minimum inhibitory concentration,A. fumigatus,250 µg/mL
same,minimum inhibitory concentration,A. niger,250 µg/mL
same,minimum inhibitory concentration,A. flavus,250 µg/mL
